Results as given in patent US10308686B2, “Gamma-AApeptides with potent and broad-spectrum antimicrobial activity” (priority 2012, dated 2019).
Values after ≈ are worked out from the molar mass of the structure shown.

How the values were obtained:
[1] = test system: human red blood cells (hRBC's); assay: Hemolysis assay; type: cell-based
Summary of the method: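 Washed human RBCs (K2 EDTA) as 5% v/v suspension in PBS, mixed 1:1 with two-fold serial peptide dilutions (250–1.6 μg/ml, or 1 mg/ml–6.3 μg/ml for lipidated γ-AApeptides) in PBS; 1 h at 37 °C. Supernatant OD 360 nm, normalised to PBS (0%) and 0.2% Triton-X-100 (100%); H50 = concentration giving 50% hemolysis.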

S. aureus ATCC 33592 = type: cell-based; conditions: serial passage at half-MIC, 17 days
[2] = test system: K. pneumoniae (ATCC 13383)
[3] = test system: multi-drug resistant P. aeruginosa ATCC 27853; conditions: ATCC 27853
[4] = test system: multi-drug resistant S. epidermidis (RP62A); conditions: Table 3
[5] = test system: vancomycin-resistant E. faecalis (ATCC 700802); conditions: Table 3
[6] = test system: methicillin-resistant S. aureus (ATCC 33592); conditions: Table 3
[7] = test system: methicillin-resistant S. aureus (MRSA, USA100 lineage); conditions: Table 3
B. anthracis = conditions: Table 3
C. albicans (ATCC 10231) = conditions: ATCC 10231

SMILES: CCCCCCCCCCCCCCCC(=O)N[C@@H](C)CN(CC(=O)N[C@@H](C)CN(CC(=O)N[C@@H](CC(C)C)CN(CC(=O)N[C@@H](CC(C)C)CN(CC(=O)N[C@@H](CC(C)C)CN(CC(N)=O)C(=O)CCCN)C(=O)CCCN)C(=O)CCCN)C(C)=O)C(C)=O [γAA2]
- Hemolysis (H50) [1]: >500 µg/mL
- development of resistance (change in MIC over 17 passages), in words (S. aureus ATCC 33592): did not cause resistance
- MIC, E. coli (E. coli (JM109)): 2.5 µg/mL (≈ 1.94 µM)
- MIC, K. pneumoniae (causing pneumonia) [2]: 5 µg/mL (≈ 3.87 µM)
- MIC, P. aeruginosa [3]: 25 to 50 µg/mL
- MIC, B. subtilis (B. subtilis (BR151)): 2.5 µg/mL (≈ 1.94 µM)
- MIC, S. epidermidis (multi-drug resistant) [4]: 4 µg/mL (≈ 3.1 µM)
- MIC, E. faecalis (vancomycin-resistant) [5]: 5 µg/mL (≈ 3.87 µM)
- MIC, S. aureus (methicillin-resistant) [6]: 4 µg/mL (≈ 3.1 µM)
- MIC, MRSA USA100 [7]: 10 µg/mL (≈ 7.74 µM)
- MIC, B. anthracis (lethal bioweapon) (B. anthracis): 5 µg/mL (≈ 3.87 µM)
- MIC, Fungi C. albicans (C. albicans (ATCC 10231)): 5 µg/mL (≈ 3.87 µM)
